Assay results published in article PMC10517971, “An inverse agonist of orphan receptor GPR61 acts by a G protein-competitive allosteric mechanism” (Nature Communications, 2023).
Where “and” joins values, the source holds several entries; their conditions need not be identical. Identical values can stand only once. Like-named read-outs stand apart in the source and are kept apart here.

Tests used:
human GPR61 = target: T1, human GPR61 (Homo sapiens, UniProt Q9BZJ8); assay: Functional cAMP assay (HTRF), transiently transfected CHO-K1 cells, wild-type GPR61 (untagged and HiBit-tagged); format: cell-based; parameters: key to cAMP response (Figure 3e source data): nM cAMP per well, from standard curve
T1 construct: expressed in transfected cells; host or cells: CHO-K1, transient (Fugene6)
T1 sequence (Q9BZJ8 whole entry): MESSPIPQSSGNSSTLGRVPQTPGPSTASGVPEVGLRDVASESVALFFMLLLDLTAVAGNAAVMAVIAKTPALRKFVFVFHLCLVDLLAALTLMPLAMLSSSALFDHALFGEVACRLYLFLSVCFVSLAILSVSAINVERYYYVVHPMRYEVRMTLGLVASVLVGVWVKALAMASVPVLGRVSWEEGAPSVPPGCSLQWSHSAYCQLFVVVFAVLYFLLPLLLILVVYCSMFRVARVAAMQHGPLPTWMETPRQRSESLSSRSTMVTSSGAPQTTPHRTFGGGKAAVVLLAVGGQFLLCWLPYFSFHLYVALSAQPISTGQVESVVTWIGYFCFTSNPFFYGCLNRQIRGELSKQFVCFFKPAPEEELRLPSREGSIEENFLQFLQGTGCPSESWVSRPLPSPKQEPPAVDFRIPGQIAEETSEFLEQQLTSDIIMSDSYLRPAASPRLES
Excerpt: (§1) The human GPR61 (reference sequence NM_031936.4) cDNA was synthesized and subcloned into pcDNA5/FRT/TO (Thermo Fisher, Pittsburgh, PA). The pcDNA5/FRT/TO/ human GPR61 plasmid was then transfected into the Flp-In™-CHO Cell Line (Thermo Fisher, Pittsburgh, PA) and a doxycycline-inducible clonal cell line was selected (CHO TREx hGPR61 WT). Sequences encoding untagged and HiBit/hemagglutinin (HA)-tagged versions of the wild-type human GPR61 were synthesized and cloned into pcDNA3.1. The HiBit ([…]) and HA ([…]) tags were sequentially included after the N-terminal initiator methionine. Four single amino acid substitutions (N137A, R140A, V288A, N345A) were then introduced in the untagged and tagged human GPR61 constructs using site-specific mutagenesis. The nucleotide sequences of all receptor constructs were confirmed by automated DNA sequencing.
Parental CHO-K1 cells were maintained at 37 °C in a humidified environment (5% CO2) and grown in Dulbecco’s Modified Eagle Medium (DMEM) F-12 media (Gibco, 11320033) supplemented with 10% FBS, 1% Glutamax (Gibco, 35050061) and 100units/ml penicillin and streptomycin (Gibco, 15140122. Cells were dissociated using a cell dissociation solution (Gibco, 13151-014), counted, and resuspended in complete culture media without antibiotics. Cells were then transiently transfected using Fugene6 (Promega) in a 384-well plate format (Corning, 3570). For each well, 7500 cells were transfected with 5 ng of receptor plasmid, 20 ng of carrier DNA (Promega, PAE4881) and 0.075 μl Fugene6 in a final volume of 25 μl. Fugene6 and DNA were separately diluted in Optimem media (Gibco, 31985070) (1.25 μl final volume each). Fugene6 and DNA solutions were then combined and incubated for 15 min at room temperature. The cell containing solution (22.5 μl) was then added and transfection reactions were mixed and transferred to the assay plate. Following 24 h incubation at 37 °C, wells were rinsed once and 25 μl of HiBit assay buffer (Phenol-red free DMEM F-12 media containing 2% FBS) was added per well. Surface and total receptor expression was measured separately by adding 25 μl per well of the extracellular (Promega, PRN2421) and lytic (Promega, PRN3040) assay solutions, respectively. Plates were incubated for 10 min at room temperature on a shaker and luciferase activity was measured using an EnVision plate reader (Perkin Elmer, Chicago, IL). Expression was normalized as percent of the wild-type receptor signal. Statistical comparisons of expression levels observed with WT versus GPR61 mutants were made by one-way analysis of variance with Dunnett’s post hoc test.
A homogeneous Time-Resolved Fluorescence (HTRF) assay (Perkin Elmer, Dynamic2 kit #) was used to assess receptor basal and inverse agonist activity at human GPR61, GPR62, and GPR101. For routine inverse agonist screening frozen CHO TREx human GPR61, GPR62 and GPR101 cells were used. Cells were thawed, resuspended in complete assay media (DMEM F-12, 10% HI FBS, 100 μg/mL Normocin, 700 μg/mL Hygromycin B and 15 μg/mL Blasticidin) containing 1ug/ml doxycycline, plated in white 384 well plates (Corning, 3570) at a density of 750 cells/well (25 μl/ well) and cultured at 37 °C in an incubator overnight. For studies assessing basal and inverse agonist activity at human GPR61 mutants, CHO-K1 cells were transiently transfected using Fugene6, plated in white 384 well plates (7500 cells/well) and grown overnight at 37 °C, as described for receptor expression studies. […]

[1] = target: T2, HiBit-tagged wild-type GPR61 (Homo sapiens, UniProt Q9BZJ8); assay: Receptor expression studies (HiBit surface and total expression), CHO-K1 cells; format: cell-based; details: effect of compound, Fig. 2b, c
T2 construct: expressed in transfected cells; host or cells: CHO-K1, transient (Fugene6)
T2 sequence (Q9BZJ8 whole entry): as above
Excerpt: as §1, with “Four single amino acid substitutions (N137A, R140A, V288A, N345A) were then introduced in the untagged and tagged human GPR61 constructs using site-specific mutagenesis. The nucleotide sequences of all receptor constructs were confirmed by automated DNA sequencing.” left out
Parental CHO-K1 cells were maintained at 37 °C in a humidified environment (5% CO2) and grown in Dulbecco’s Modified Eagle Medium (DMEM) F-12 media (Gibco, 11320033) supplemented with 10% FBS, 1% Glutamax (Gibco, 35050061) and 100units/ml penicillin and streptomycin (Gibco, 15140122. Cells were dissociated using a cell dissociation solution (Gibco, 13151-014), counted, and resuspended in complete culture media without antibiotics. Cells were then transiently transfected using Fugene6 (Promega) in a 384-well plate format (Corning, 3570). For each well, 7500 cells were transfected with 5 ng of receptor plasmid, 20 ng of carrier DNA (Promega, PAE4881) and 0.075 μl Fugene6 in a final volume of 25 μl. […]

Human PDE8B = Human PDE8B (Homo sapiens, UniProt O95263); assay: Phosphodiesterase Assay (SPA); format: biochemical
Sequence of Human PDE8B (O95263 whole entry): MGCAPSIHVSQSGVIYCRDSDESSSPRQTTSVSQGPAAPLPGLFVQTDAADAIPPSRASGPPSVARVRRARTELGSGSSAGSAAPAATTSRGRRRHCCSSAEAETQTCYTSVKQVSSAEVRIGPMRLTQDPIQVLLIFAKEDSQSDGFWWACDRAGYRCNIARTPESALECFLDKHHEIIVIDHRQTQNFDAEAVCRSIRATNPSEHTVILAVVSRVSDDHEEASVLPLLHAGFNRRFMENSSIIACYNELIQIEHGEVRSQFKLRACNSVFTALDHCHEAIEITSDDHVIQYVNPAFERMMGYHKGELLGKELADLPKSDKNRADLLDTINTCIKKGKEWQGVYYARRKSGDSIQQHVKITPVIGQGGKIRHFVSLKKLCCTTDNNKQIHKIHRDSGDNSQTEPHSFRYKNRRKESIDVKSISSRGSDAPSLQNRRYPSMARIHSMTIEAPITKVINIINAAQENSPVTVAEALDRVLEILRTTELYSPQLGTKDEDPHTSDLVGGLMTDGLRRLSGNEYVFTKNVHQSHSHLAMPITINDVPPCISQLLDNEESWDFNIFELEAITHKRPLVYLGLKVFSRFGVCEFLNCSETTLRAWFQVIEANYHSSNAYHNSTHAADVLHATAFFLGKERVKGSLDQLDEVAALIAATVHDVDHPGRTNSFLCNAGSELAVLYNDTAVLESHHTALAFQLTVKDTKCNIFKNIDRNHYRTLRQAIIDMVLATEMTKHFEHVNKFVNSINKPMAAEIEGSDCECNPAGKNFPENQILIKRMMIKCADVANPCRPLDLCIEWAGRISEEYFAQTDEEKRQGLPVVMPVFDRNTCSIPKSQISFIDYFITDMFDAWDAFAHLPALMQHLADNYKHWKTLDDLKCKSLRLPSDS

Human PDE11A4 = Human PDE11A4 (Homo sapiens, UniProt Q9HCR9); assay: Phosphodiesterase Assay (SPA); format: biochemical
Sequence of Human PDE11A4 (Q9HCR9 whole entry): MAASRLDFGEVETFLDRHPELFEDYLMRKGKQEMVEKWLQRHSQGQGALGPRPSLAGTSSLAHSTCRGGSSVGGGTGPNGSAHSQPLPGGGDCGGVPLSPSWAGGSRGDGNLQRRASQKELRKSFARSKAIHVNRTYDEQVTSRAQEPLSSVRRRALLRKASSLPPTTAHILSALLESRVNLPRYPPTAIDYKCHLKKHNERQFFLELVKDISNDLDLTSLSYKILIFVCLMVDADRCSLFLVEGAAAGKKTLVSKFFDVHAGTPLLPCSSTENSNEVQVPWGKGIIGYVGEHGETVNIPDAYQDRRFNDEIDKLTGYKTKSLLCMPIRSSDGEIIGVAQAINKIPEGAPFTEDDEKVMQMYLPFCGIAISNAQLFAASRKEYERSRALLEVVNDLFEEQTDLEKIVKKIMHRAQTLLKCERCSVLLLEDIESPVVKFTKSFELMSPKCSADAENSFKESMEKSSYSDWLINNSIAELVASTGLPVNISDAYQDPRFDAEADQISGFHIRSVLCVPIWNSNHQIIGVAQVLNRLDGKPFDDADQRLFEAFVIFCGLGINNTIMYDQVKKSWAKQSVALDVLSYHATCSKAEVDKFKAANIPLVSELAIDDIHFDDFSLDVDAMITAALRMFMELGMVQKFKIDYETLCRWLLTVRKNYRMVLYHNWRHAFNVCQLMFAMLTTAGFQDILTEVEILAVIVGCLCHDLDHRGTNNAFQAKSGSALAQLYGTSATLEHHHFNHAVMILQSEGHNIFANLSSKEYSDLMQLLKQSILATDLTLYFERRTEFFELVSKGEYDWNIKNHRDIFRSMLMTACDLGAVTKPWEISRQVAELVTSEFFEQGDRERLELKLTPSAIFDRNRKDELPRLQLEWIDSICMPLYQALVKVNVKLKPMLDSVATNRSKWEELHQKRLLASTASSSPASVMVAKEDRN

Acetylcholinesterase = Acetylcholinesterase (Homo sapiens, UniProt P22303); assay: Acetylcholinesterase Assay (Ellman); format: biochemical
Sequence of Acetylcholinesterase (P22303 32-614, species assumed): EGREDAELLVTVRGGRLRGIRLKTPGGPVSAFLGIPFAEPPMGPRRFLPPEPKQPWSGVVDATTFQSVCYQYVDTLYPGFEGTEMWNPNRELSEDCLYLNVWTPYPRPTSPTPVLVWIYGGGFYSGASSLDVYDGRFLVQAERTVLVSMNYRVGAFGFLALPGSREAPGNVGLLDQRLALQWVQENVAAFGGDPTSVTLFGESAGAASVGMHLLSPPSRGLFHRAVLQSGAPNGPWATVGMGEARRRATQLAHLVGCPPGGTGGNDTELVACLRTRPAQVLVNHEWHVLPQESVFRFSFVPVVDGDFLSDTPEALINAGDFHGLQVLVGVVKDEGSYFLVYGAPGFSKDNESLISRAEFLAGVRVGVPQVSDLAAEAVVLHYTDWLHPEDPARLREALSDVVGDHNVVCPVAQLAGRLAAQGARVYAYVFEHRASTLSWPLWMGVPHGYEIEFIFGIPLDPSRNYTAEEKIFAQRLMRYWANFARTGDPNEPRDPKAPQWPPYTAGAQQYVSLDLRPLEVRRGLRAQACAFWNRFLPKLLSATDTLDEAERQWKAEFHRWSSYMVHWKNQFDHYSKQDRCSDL
Protocol: 67 black 384 well flat -bottomed polystyrene plates. Compound/vehicle or standard (5 µL) were added
68 to wells followed by His -tagged BRD4 (10 µL; 40 nM final concentration in assay). Following a
69 15 min incubation at room temperature a propri etary Cy5 -labelled probe molecule (5 µL; 2 nM
70 final concentration in assay) was added. Following, an additional 16 h incubation at room
71 temperature fluorescence polarization measurements were made using an Envision plate reader
72 (Perkin Elmer, Waltham, MA, USA) and mP values were used for analysis .
73 Acetylcholinesterase As say
74 The assay described is based on Ellmans method, in which thiocholine produced by the action of
75 acetylcholinesterase forms a yellow color with 5,5'- dithiobis(2- nitrobenzoic acid). The intensity
76 of the product color, measured at 405 nm, is proportionate to the enzyme activity in the sample.
77 To each well of a clear 96 polystyrene plate 90 µL enzyme solution (1mU/well) or phosphate
78 buffered saline (PBS) and 10 µL compound/standard or vehicle was added. The plate was
79 incubated at room temperature for 15 min. Subsequently 100 µL of substrate/detection reagent
80 (800 µM acetylthiocholine/1mM 5,5'- dithiobis(2- nitrobenzoic acid)) was added and the plate was
81 read at the 20 min time point.
83 Human embryonic kidney (HEK) cells stably transfected with a doxycycline inducible plasmid […]

SMILES: CCOc1cc(C)nc(N(CCOC)S(=O)(=O)c2ccc(NCc3c(F)cncc3F)nc2OC)n1 [Compound 1]
- IC50 (human GPR61; Fig. 2d, HiBit-tagged WT, read-out: IC50, cAMP assay, Hibit-tagged GPR61): 10 nM
- IC50 (human GPR61; Fig. 2d, untagged WT, read-out: IC50, cAMP assay, Untagged GPR61): 11 nM
- cAMP response (Figure 3e source data) (human GPR61; HiBit WT, concentration -7.5): 1.38 and 1.77 and 1.31 and 1.26 and 1.43 and 2.44
- cAMP response (Figure 3e source data) (human GPR61; HiBit WT, concentration -8): 2.14 and 2.36 and 1.86 and 2.11 and 3.43
- cAMP response (Figure 3e source data) (human GPR61; HiBit WT, concentration -10): 3.60 and 4.23 and 3.00 and 3.19 and 3.38 and 5.40
- cAMP response (Figure 3e source data) (human GPR61; Untagged WT, concentration -8.5): 3.48 and 4.28 and 2.15 and 2.16 and 4.06 and 4.02
- cAMP response (Figure 3e source data) (human GPR61; Untagged WT, concentration -9): 4.53 and 5.41 and 3.02 and 3.13 and 5.81 and 5.80
- IC50 (human GPR61; wild-type GPR61, untagged and HiBit-tagged, read-out: IC50 in the functional cAMP assay): 10 to 11 nM
- cell surface expression of HiBit-tagged wild-type GPR61 [1]: increased
- IC50 (Human PDE8B): 9070 nM
- IC50 (Human PDE11A4): > 40000 nM
- IC50 (Acetylcholinesterase): > 50000 nM
